{"source": "ChEMBL document CHEMBL6177967", "about": "“Semisynthesis and biological evaluation of 17-hydroxybrevianamide N derivatives as anti-inflammatory agents by mediating NF-κB and MAPK signaling pathways” (Eur J Med Chem, 2025)", "key": {"RAW264.7 [1]": {"system": "RAW264.7", "assay": "Cytotoxicity against mouse RAW264.7 cells assessed as inhibition of cell growth at 10 uM incubated for 24 hrs by MTT assay", "format": "toxicity, cell-based", "conditions": "raw264.7, 24 h"}, "RAW264.7 [2]": {"system": "RAW264.7", "assay": "Cytotoxicity against mouse RAW264.7 cells assessed as inhibition of cell growth at 50 uM incubated for 24 hrs by MTT assay", "format": "toxicity, cell-based", "conditions": "raw264.7, 24 h"}, "RAW264.7 [3]": {"system": "RAW264.7", "assay": "Anti-inflammatory activity in LPS-induced mouse RAW264.7 cells assessed as inhibition of NO levels at 2 uM incubated for 24 hrs", "format": "functional, cell-based"}, "RAW264.7 [4]": {"system": "RAW264.7", "assay": "Anti-inflammatory activity in LPS-induced mouse RAW264.7 cells assessed as inhibition of IL-6 level at 2 uM incubated for 24 hrs by ELISA relative to control", "format": "functional"}, "RAW264.7 [5]": {"system": "RAW264.7", "assay": "Anti-inflammatory activity in LPS-induced mouse RAW264.7 cells assessed as inhibition of NO levels incubated for 24 hrs", "format": "functional, cell-based", "conditions": "RAW264.7, 24 h"}, "RAW264.7 [6]": {"system": "RAW264.7", "assay": "Cytotoxicity against mouse RAW264.7 cells assessed as inhibition of cell growth at 2 uM incubated for 24 hrs by MTT assay", "format": "toxicity, cell-based", "conditions": "raw264.7, 24 h"}, "RAW264.7 [7]": {"system": "RAW264.7", "assay": "Anti-inflammatory activity in LPS-induced mouse RAW264.7 cells assessed as inhibition of IL-1beta level at 2 uM incubated for 24 hrs by ELISA relative to control", "format": "functional"}, "RAW264.7 [8]": {"system": "RAW264.7", "assay": "Anti-inflammatory activity in LPS-induced mouse RAW264.7 cells assessed as inhibition of TNF-alpha level at 2 uM incubated for 24 hrs by ELISA relative to control", "format": "functional"}}, "note": "Active and inactive are the calls of the source. The rule behind the calls is not given here."}
{"smiles": "O=C1c2nc3ccccc3c(=O)n2C(Cc2ccccc2O)C(=O)N1Cc1ccc(Cl)cc1", "note": "(racemic)", "values": [{"measurement": "Activity", "setting": "RAW264.7 [1]", "result": "Non-toxic"}, {"measurement": "Activity", "setting": "RAW264.7 [2]", "result": "Non-toxic"}]}
{"smiles": "CN1C(=O)c2nc3ccccc3c(=O)n2C(Cc2ccccc2OCc2ccc(Cl)cc2)C1=O", "note": "(racemic)", "values": [{"measurement": "Activity", "setting": "RAW264.7 [1]", "result": "Non-toxic"}, {"measurement": "Activity", "setting": "RAW264.7 [3]", "result": "Active"}]}
{"smiles": "O=C1c2nc3ccccc3c(=O)n2C(Cc2ccccc2O)C(=O)N1Cc1ccccc1Cl", "note": "(racemic)", "values": [{"measurement": "Activity", "setting": "RAW264.7 [1]", "result": "Non-toxic"}, {"measurement": "Activity", "setting": "RAW264.7 [2]", "result": "Non-toxic"}, {"measurement": "Activity", "setting": "RAW264.7 [3]", "result": "Active; Strong Ability Of No Inhibition Observed"}]}
{"smiles": "O=C1c2nc3ccccc3c(=O)n2[C@H](Cc2ccccc2O)C(=O)N1Cc1cccc(F)c1", "values": [{"measurement": "inhibition at 2 µM", "setting": "RAW264.7 [4]", "result": 22.9, "unit": "%"}, {"measurement": "IC50", "setting": "RAW264.7 [5]", "result": 2.25, "unit": "µM"}, {"measurement": "Activity", "setting": "RAW264.7 [6]", "result": "Non-toxic"}, {"measurement": "inhibition at 2 µM", "setting": "RAW264.7 [7]", "result": 44, "unit": "%"}, {"measurement": "inhibition", "setting": "RAW264.7 [8]", "result": "inactive"}]}
{"smiles": "CN1C(=O)c2nc3ccccc3c(=O)n2C(Cc2ccccc2OC(=O)COCc2ccccc2)C1=O", "note": "(racemic)", "values": [{"measurement": "Activity", "setting": "RAW264.7 [1]", "result": "Non-toxic"}]}
{"smiles": "CN1C(=O)c2nc3ccccc3c(=O)n2C(Cc2ccccc2OCc2cccc(C(F)(F)F)c2)C1=O", "note": "(racemic)", "values": [{"measurement": "Activity", "setting": "RAW264.7 [1]", "result": "Non-toxic"}]}
{"smiles": "CN1C(=O)c2nc3ccccc3c(=O)n2C(Cc2ccccc2OC(=O)c2ccco2)C1=O", "note": "(racemic)", "values": [{"measurement": "Activity", "setting": "RAW264.7 [1]", "result": "Non-toxic"}]}
{"smiles": "COc1ccc(C2(O)c3nc4ccccc4c(=O)n3C(Cc3ccccc3O)C(=O)N2C)cc1", "note": "(racemic)", "values": [{"measurement": "Activity", "setting": "RAW264.7 [1]", "result": "Non-toxic"}]}
{"smiles": "O=C1c2nc3ccccc3c(=O)n2[C@@H](Cc2ccccc2O)C(=O)N1Cc1cccc(Br)c1", "values": [{"measurement": "inhibition", "setting": "RAW264.7 [4]", "result": "inactive"}, {"measurement": "IC50", "setting": "RAW264.7 [5]", "result": "> 8", "unit": "µM"}, {"measurement": "Activity", "setting": "RAW264.7 [6]", "result": "Non-toxic"}, {"measurement": "inhibition", "setting": "RAW264.7 [7]", "result": "inactive"}, {"measurement": "inhibition", "setting": "RAW264.7 [8]", "result": "inactive"}]}
{"smiles": "COc1ccccc1CC1C(=O)N(Cc2cccc(C)c2)C(=O)c2nc3ccccc3c(=O)n21", "note": "(racemic)", "values": [{"measurement": "Activity", "setting": "RAW264.7 [1]", "result": "Non-toxic"}]}
{"smiles": "CCOC(=O)COc1ccccc1CC1C(=O)N(C)C(=O)c2nc3ccccc3c(=O)n21", "note": "(racemic)", "values": [{"measurement": "Activity", "setting": "RAW264.7 [1]", "result": "Non-toxic"}]}
{"smiles": "O=C1c2nc3ccccc3c(=O)n2C(Cc2ccccc2O)C(=O)N1Cc1cccc(Br)c1", "note": "(racemic)", "values": [{"measurement": "Activity", "setting": "RAW264.7 [1]", "result": "Non-toxic"}, {"measurement": "Activity", "setting": "RAW264.7 [3]", "result": "Active; Strong Ability Of No Inhibition Observed"}]}
{"smiles": "O=C1c2nc3ccccc3c(=O)n2[C@@H](Cc2ccccc2O)C(=O)N1Cc1cccc(F)c1", "values": [{"measurement": "inhibition at 2 µM", "setting": "RAW264.7 [4]", "result": 21.3, "unit": "%"}, {"measurement": "IC50", "setting": "RAW264.7 [5]", "result": 3.07, "unit": "µM"}, {"measurement": "Activity", "setting": "RAW264.7 [6]", "result": "Non-toxic"}, {"measurement": "inhibition at 2 µM", "setting": "RAW264.7 [7]", "result": 60.7, "unit": "%"}, {"measurement": "inhibition", "setting": "RAW264.7 [8]", "result": "inactive"}]}
{"smiles": "O=C1c2nc3ccccc3c(=O)n2C(Cc2ccccc2O)C(=O)N1Cc1cccc(F)c1", "note": "(racemic)", "values": [{"measurement": "Activity", "setting": "RAW264.7 [1]", "result": "Non-toxic"}, {"measurement": "Activity", "setting": "RAW264.7 [3]", "result": "Active; Strong Ability Of No Inhibition Observed"}]}
{"smiles": "CN1C(=O)c2nc3ccccc3c(=O)n2[C@H](Cc2ccccc2OCc2ccccc2Cl)C1=O", "values": [{"measurement": "inhibition", "setting": "RAW264.7 [4]", "result": "inactive"}, {"measurement": "IC50", "setting": "RAW264.7 [5]", "result": "> 8", "unit": "µM"}, {"measurement": "Activity", "setting": "RAW264.7 [6]", "result": "Non-toxic"}, {"measurement": "inhibition", "setting": "RAW264.7 [7]", "result": "inactive"}, {"measurement": "inhibition", "setting": "RAW264.7 [8]", "result": "inactive"}]}
{"smiles": "Cc1ccc(COc2ccccc2CC2C(=O)N(C)C(=O)c3nc4ccccc4c(=O)n32)cc1", "note": "(racemic)", "values": [{"measurement": "Activity", "setting": "RAW264.7 [1]", "result": "Non-toxic"}]}
{"smiles": "COCOc1ccccc1CC1C(=O)N(Cc2cccc(C(F)(F)F)c2)C(=O)c2nc3ccccc3c(=O)n21", "note": "(racemic)", "values": [{"measurement": "Activity", "setting": "RAW264.7 [1]", "result": "Non-toxic"}, {"measurement": "Activity", "setting": "RAW264.7 [2]", "result": "Toxic"}]}
{"smiles": "O=C1c2nc3ccccc3c(=O)n2C(Cc2ccccc2O)C(=O)N1Cc1cccc(C(F)(F)F)c1", "note": "(racemic)", "values": [{"measurement": "Activity", "setting": "RAW264.7 [1]", "result": "Non-toxic"}]}
{"smiles": "CN1C(=O)c2nc3ccccc3c(=O)n2C(Cc2ccccc2OCC#N)C1=O", "note": "(racemic)", "values": [{"measurement": "Activity", "setting": "RAW264.7 [1]", "result": "Non-toxic"}, {"measurement": "Activity", "setting": "RAW264.7 [2]", "result": "Non-toxic"}, {"measurement": "Activity", "setting": "RAW264.7 [3]", "result": "Active; Strong Ability Of No Inhibition Observed"}]}
{"smiles": "CN1C(=O)c2nc3ccccc3c(=O)n2[C@H](Cc2ccccc2OCC#N)C1=O", "values": [{"measurement": "inhibition at 2 µM", "setting": "RAW264.7 [4]", "result": 31.9, "unit": "%"}, {"measurement": "IC50", "setting": "RAW264.7 [5]", "result": "> 8", "unit": "µM"}, {"measurement": "Activity", "setting": "RAW264.7 [6]", "result": "Non-toxic"}, {"measurement": "inhibition at 2 µM", "setting": "RAW264.7 [7]", "result": 63.1, "unit": "%"}, {"measurement": "inhibition", "setting": "RAW264.7 [8]", "result": "inactive"}]}
